The values below are quoted from earlier work in patent publication US20210401895A1, “TREATMENT OF A DISEASE OF THE GASTROINTESTINAL TRACT WITH LIVE BIOTHERAPEUTICS” (Progenity, Inc., priority 2017, published 2021).

Data set [1] relates to malignant or hyperactive melanocytes.
For data set [2], the system named is Propionibacterium acnes and Staphylococcus epidermidis. Conditions: particularly Propionibacterium acnes and Staphylococcus epidermidis.
Data set [3] concerns dermatophytes, yeasts, moulds and other fungi. Conditions: broad spectrum of dermatophytes.

For the molecule `O=C(O)CCCCCCCC(=O)O` [Azelaic acid], the “effect on malignant or hyperactive melanocytes” value in data set [1] is reported as “cytotoxic effect”. The “effects on aerobic and anaerobic organisms” value in data set [2] was “antibacterial effects”.
Consider `Cc1cc(C2CCCCC2)n(O)c(=O)c1` [Ciclopirox], for which the activity against fungi result in data set [3] was “fungicidal, fungistatic and sporicidal activity”.
